These results are taken from ChEMBL document CHEMBL4385656, “Ciprofloxacin-1,2,3-triazole-isatin hybrids tethered via amide: Design, synthesis, and in vitro anti-mycobacterial activity evaluation” (Bioorg Med Chem Lett, 2019).

Structures are written as SMILES. Values after ≈ are worked out from the molar mass of the structure shown.

The test system of series [1] is Mycobacterium tuberculosis. Briefly: Anti-mycobacterial activity against Mycobacterium tuberculosis H37Rv. In kind it is functional.
A short description of series [2]: Cytotoxicity in African green monkey Vero cells. It is filed as cell-based. The note with it: chlorocebus sabaeus.
A short description of series [3]: Selectivity index, ratio of CC50 for cytotoxicity in African green monkey Vero cells to MIC for anti-mycobacterial activity against Mycobacterium tuberculosis H37Rv. In kind it is toxicity, cell-based. To be noted: read-out: Selectivity Index.
For series [4], the system named is Mycobacterium tuberculosis. Kind of series: Potency index, ratio of MIC for ciprofloxacin to MIC for test compound for anti-mycobacterial activity against Mycobacterium tuberculosis H37Rv. It is filed as functional.

In the case of `CO/N=C1/C(=O)N(Cc2cn(CC(=O)N3CCN(c4cc5c(cc4F)c(=O)c(C(=O)O)cn5C4CC4)CC3)nn2)c2c(F)cccc21`, in series [1], the lowest concentration to inhibit growth (MIC) was 32 µg/mL (≈ 49.5 µM). In series [2], this compound yielded a CC50 of 32 µg/mL (≈ 49.5 µM). The selectivity ratio in series [3] was 1.

In series [1], `CO/N=C1/C(=O)N(Cc2cn(CC(=O)N3CCN(c4cc5c(cc4F)c(=O)c(C(=O)O)cn5C4CC4)CC3)nn2)c2ccc(C)cc21` displayed an MIC of 32 µg/mL (≈ 49.8 µM). In addition, in series [2], the CC50 was determined as 8 µg/mL (≈ 12.4 µM). In addition, the selectivity ratio in series [3] worked out at 0.25.

`O=C1C(=O)N(Cc2cn(CC(=O)N3CCN(c4cc5c(cc4F)c(=O)c(C(=O)O)cn5C4CC4)CC3)nn2)c2c(F)cccc21` returned an MIC in series [1] of 4 µg/mL (≈ 6.48 µM). In series [2], half-maximal cytotoxicity (CC50) was put at 8 µg/mL (≈ 13 µM). In series [3], the selectivity ratio was 2.

In turn, `CO[C@H]1/C=C/O[C@@]2(C)Oc3c(C)c(O)c4c(O)c(c(/C=N/N5CCN(C)CC5)c(O)c4c3C2=O)NC(=O)/C(C)=C\C=C\[C@H](C)[C@H](O)[C@@H](C)[C@@H](O)[C@@H](C)[C@H](OC(C)=O)[C@@H]1C` [RIFAMPIN] had an MIC in series [1] of 0.25 µg/mL (≈ 0.304 µM). For the same compound, in series [2], the CC50 came out at 128 µg/mL (≈ 156 µM). In series [3], the selectivity ratio was determined as 512.

Regarding `O=C1C(=O)N(Cc2cn(CC(=O)N3CCN(c4cc5c(cc4F)c(=O)c(C(=O)O)cn5C4CC4)CC3)nn2)c2ccccc21`, inhibition of growth in series [1] (MIC) required 0.5 µg/mL (≈ 0.834 µM). Besides, the CC50 in series [2] stood at 16 µg/mL (≈ 26.7 µM). Moreover, in series [4], the Ratio amounted to 2. For the same compound, the selectivity ratio in series [3] was determined as 32.

With `NNC(=O)c1ccncc1` [ISONIAZID], in series [1], 0.12 µg/mL (≈ 0.875 µM) was the least that counted as inhibitory (MIC). The compound also gave a CC50 in series [2] of 64 µg/mL (≈ 467 µM). Besides, the selectivity ratio in series [3] came out at 512.

The compound `CO/N=C1/C(=O)N(Cc2cn(CC(=O)N3CCN(c4cc5c(cc4F)c(=O)c(C(=O)O)cn5C4CC4)CC3)nn2)c2ccccc21` came in with a minimum inhibitory concentration (MIC) in series [1] of 8 µg/mL (≈ 12.7 µM). In series [2], this compound yielded a CC50 of 128 µg/mL (≈ 204 µM). In series [3], the selectivity ratio was 16.

As to `O=C1C(=O)N(Cc2cn(CC(=O)N3CCN(c4cc5c(cc4F)c(=O)c(C(=O)O)cn5C4CC4)CC3)nn2)c2ccc(F)cc21`, the MIC in series [1] came to 1 µg/mL (≈ 1.62 µM). Further, the CC50 in series [2] was found to be 32 µg/mL (≈ 51.8 µM). The selectivity ratio in series [3] stood at 32.

Compound `CCO/N=C1/C(=O)N(Cc2cn(CC(=O)N3CCN(c4cc5c(cc4F)c(=O)c(C(=O)O)cn5C4CC4)CC3)nn2)c2c(F)cccc21` displayed an MIC in series [1] of 32 µg/mL (≈ 48.4 µM). The same compound registered a CC50 in series [2] of 16 µg/mL (≈ 24.2 µM). The selectivity ratio in series [3] was 0.5.

Compound `CCO/N=C1/C(=O)N(Cc2cn(CC(=O)N3CCN(c4cc5c(cc4F)c(=O)c(C(=O)O)cn5C4CC4)CC3)nn2)c2ccc(C)cc21` registered a minimum inhibitory concentration (MIC) in series [1] of 32 µg/mL (≈ 48.7 µM). For the same compound, the CC50 in series [2] amounted to 32 µg/mL (≈ 48.7 µM). Also, the selectivity ratio in series [3] was 1.

Compound `CO/N=C1/C(=O)N(Cc2cn(CC(=O)N3CCN(c4cc5c(cc4F)c(=O)c(C(=O)O)cn5C4CC4)CC3)nn2)c2ccc(F)cc21` returned an MIC in series [1] of 8 µg/mL (≈ 12.4 µM). Moreover, half-maximal cytotoxicity in series [2] (CC50) was put at 64 µg/mL (≈ 99 µM). Moreover, the selectivity ratio in series [3] amounted to 8.

`CCO/N=C1/C(=O)N(Cc2cn(CC(=O)N3CCN(c4cc5c(cc4F)c(=O)c(C(=O)O)cn5C4CC4)CC3)nn2)c2ccc(F)cc21` registered an MIC in series [1] of 16 µg/mL (≈ 24.2 µM). The CC50 in series [2] was 8 µg/mL (≈ 12.1 µM). The selectivity ratio in series [3] amounted to 0.5.

As for `CCO/N=C1/C(=O)N(Cc2cn(CC(=O)N3CCN(c4cc5c(cc4F)c(=O)c(C(=O)O)cn5C4CC4)CC3)nn2)c2ccccc21`, the MIC in series [1] came out at 32 µg/mL (≈ 49.8 µM). The same compound had a CC50 in series [2] of 64 µg/mL (≈ 99.6 µM). Also, the selectivity ratio in series [3] amounted to 2.

The compound `Cc1ccc2c(c1)C(=O)C(=O)N2Cc1cn(CC(=O)N2CCN(c3cc4c(cc3F)c(=O)c(C(=O)O)cn4C3CC3)CC2)nn1` gave an MIC in series [1] of 1 µg/mL (≈ 1.63 µM). The compound also gave a CC50 in series [2] of 16 µg/mL (≈ 26.1 µM). Also, in series [3], the selectivity ratio came out at 16.

`O=C(O)c1cn(C2CC2)c2cc(N3CCNCC3)c(F)cc2c1=O` [CIPROFLOXACIN] had an MIC in series [1] of 1 µg/mL (≈ 3.02 µM). Besides, in series [3], the selectivity ratio was 128.
